Some results are limits rather than exact numbers.

The term melting point denotes the temperature of the solid-liquid transition. As for `N#Cc1ccc2nc(Cl)c3ccccc3c(=O)c2c1`, the melting point is 217 to 220 °C.
In the case of `Cc1nc2c3c(c(C(=O)O)cc2n1C)CCC(c1ccccc1)N3` (configuration not stated), the melting point fell in the range of 325 to 326 °C.
Then `COCCNC(=O)c1cccc(-c2cccc3oc(Cc4ccc(F)c(F)c4)cc23)c1`, with 83 to 84 °C.
Under `CN(C)C=C(C#N)C(=O)c1ccsc1` stands 118 to 119 °C; under `CCCc1c(OCCCCCCc2ccc(C(C)C)c(OC)c2OC)ccc(C(=O)O)c1O`, 106 to 108 °C; under `O=C(O)c1ccc2c(c1)S(=O)(=O)NCN2C1CC1`, 263 to 265 °C.
Then `CON(C)C(=O)CCc1nnc(-c2ccc3c(c2)CCO3)o1`, with 112 to 113 °C.
In turn, `CC12C=CCC1C1CCC3=C(CCC(=O)C3)C1CC2` (configuration not stated) displayed a melting point of 112 to 116 °C.
Under `O=C(O)c1cc(C(F)(F)F)ccc1OCc1ccccc1` stands 94 to 95 °C.
Under `COC(=O)c1ccc(OCC(C)NCC(O)c2ccc(O)c(CO)c2)cc1` (configuration not stated) stands 60 to 68 °C.
On to `C[C@H](Cn1ncnn1)n1nnc2cc3c(=O)n(C4CC4)nnc3cc2c1=O`, for which the melting point lay within 190 to 192 °C.
For `CCCCc1ncc(/C=C(\Cc2cccs2)C(=O)O)n1CCc1ccc(CC(=O)O)cc1`, the melting point was in the range of 169 to 171 °C.
Turning to `CC(C)(C)c1cc(N(C(=O)CCCC(=O)O)c2ccccc2)cc(C(C)(C)C)c1O`, the melting point was in the range of 168 to 170 °C.
Regarding `CCCCN(C(=O)c1cnc(N2CC(C)(C)NC2=O)nc1N)c1cccc(C(F)(F)F)c1`, the melting point was in the range of 154 to 155 °C.
In turn, `CCC(=O)C(CCCCCCCCc1ccc(O)cc1)C(=O)CC` yielded a melting point of 164 to 165 °C.
Under `CCOC(=O)Cc1cn(-c2ncnc3ccccc23)c2ccccc12` stands 65 to 67 °C; under `Cc1cc(Cl)cc(C(=O)NCC2CC2)c1NC(=O)c1cc(Br)nn1-c1ncccc1Cl`, 166 to 168 °C.
`O=C(N1CCCCCC1)N1CC(Oc2cccc(C(F)(F)F)c2)C1`: the melting point lay in the range of 64.5 to 66 °C.
Under `C[Si](C)(C)c1cccc2cc(C(=O)Nc3ccc(N4CCC4)nc3)n(Cc3cccc(F)c3)c12` stands 160 to 162 °C; under `CSc1sc2[nH]c(=O)c(=O)[nH]c2c1C#N`, over 225 °C; under `CCOC(=O)C(C)(C(=O)OCC)c1ccc(N)c(C(F)(F)F)c1`, 73 to 75 °C.
Then `COc1cccc(CC(=O)O)c1OCCCc1cn(-c2ccc(Cl)cn2)nc1C(C)C`, with 148 to 149 °C.
Molecule `Cc1cc(SCc2cccc(C(F)(F)F)c2)c(C)cc1N` had a melting point of 58 to 60 °C.
Under `CC1=NC(NC(=O)Nc2cccc(Cl)c2)C(=O)N(CC(=O)N2CC3CCC(CC3)C2)c2c(C)cccc21` (configuration not stated) stands 181 to 185 °C; under `FC(F)Oc1ccc(C2=NNCC2n2cc(Cl)cn2)cc1` (configuration not stated), 93 °C; under `CCCOCCc1ccc(-c2ccc3c(c2)C=C(C(=O)Nc2ccc(CN(C)C4CCOCC4)cc2)CCS3(=O)=O)c(F)c1`, 172 to 174 °C.
Then `COC(=O)c1cc(N)c(Oc2ccccc2)c(N2CCCC2)c1`, with 154 to 156 °C; and `Cc1cccc(NC(=O)C(=O)OCC#CI)c1`, with 170 to 172 °C; and `CC(C)Oc1ccccc1C(=O)NC(=O)NC1CN2CCC1CC2` (configuration not stated), with 171 to 175 °C.
Under `Cc1nc(-c2cc(Cl)ccc2Cl)n2c1nnc1ccc(N3CCOCC3)cc12` stands 239 to 242 °C; under `CCCN(CCC)C1COc2cccc(C(=O)C(C)C)c2C1` (configuration not stated), 60 to 62 °C; under `O=C(Nc1cc(-c2ccc(-c3ccccc3)cc2)on1)c1c(Cl)cccc1Cl`, 256 to 259 °C.
On to `CN(C)C1(c2ccccc2)CCC(CCCNC(=O)NCCc2c[nH]c3ccccc23)CC1` (configuration not stated), for which the melting point amounted to 57 °C.
Then `CCOC(=O)c1c(C(F)(F)F)nc(OCC)c(C(=O)OC)c1OCC`, with 46 to 48 °C.
As to `O=C1CN(C(=O)CN2CC(c3ccc(Cl)cc3)CC2=O)CCN1` (configuration not stated), the melting point lay in the range of 205 to 207 °C.
Under `Cc1cccc(-c2nc3cccnn3c2-c2ccnc(N)c2)c1` stands 188 to 189 °C; under `CC(C)(C)c1ccc(O)c(C2=CCCCC2)c1`, 90 to 93 °C; under `Cc1cc(C)cc(N(CCO)Cc2ccc3nc(NCCCN4CCOCC4)n(Cc4nc(C)ccc4O)c3c2)c1`, 180 °C.
Then `O=C(O)c1ccc(OCCC2CC(=O)N(c3ccc(Cl)cc3)C2)cc1` (configuration not stated), with 228 to 229 °C; and `CC(C)(C)OC(=O)C(CC(O)(C(F)(F)F)C(F)(F)F)NC(=O)OCc1ccccc1` (configuration not stated), with 83 to 89 °C.
Consider `COc1ccc(-c2ccc(C(=O)Nc3ccc4cc(CN5CCCC5)cnc4c3F)cc2)cc1`, for which the melting point was in the range of 217 to 220 °C.
Under `COc1cc(Cl)ccc1NC(=O)C(C)(C)C` stands 66 to 69 °C; under `Cc1noc(C2CN=CN(C(c3ccccc3)(c3ccccc3)c3ccccc3)C2)n1` (configuration not stated), 72 to 74 °C.
Under `CC1(C)C(=O)ON(Cc2ccccc2Br)C1=O` stands 44.5 to 45.5 °C.
Then `CCOC(=O)Sc1cc(C)nc(C(Cl)(Cl)Cl)n1`, with 33 to 34.5 °C; and `CC(=O)Oc1c(C)c2c(c3ccccc13)OCC2c1ccc(C(C)C)cc1` (configuration not stated), with 109 to 110 °C; and `Cc1ccc(S(=O)(=O)Oc2ccc(C(=O)c3c(-c4ccccc4)cc4ccccn34)cc2)cc1`, with 177 to 178 °C.
Regarding `CCc1nc2c(cnn2CC)c(NC2CCOCC2)c1CNC(=O)c1cccc(C(=O)NCc2ccc(Cl)c(-c3cccc(CN4CCNC(C)C4)c3)c2)c1` (configuration not stated), the melting point fell in the range of 117 to 120 °C.
Then `CC(C)C[C@@H](C(=O)N1CCN(C(c2ccc(F)cc2)c2ccc(F)cc2)CC1)N(C)C1CCOCC1`, with 56 to 65 °C.
In the case of `CCCCCCCCOc1ccc(-c2nnc(-c3cc(Cl)ccc3Cl)o2)cc1`, the melting point came out at 86 °C.
Molecule `Cc1ccc2c(c1)c(-c1ccc(F)cc1)c(Cl)n2C1CCN(CCN2CCN(C(C)C)C2=O)CC1` showed a melting point of 127 to 130 °C.
Under `COc1cc(CC#N)c(OC)c(C)c1C` stands 98 to 99 °C; under `CC(C)(C)c1cc(N2CCCC2=O)cc(C(C)(C)C)c1O`, 173 to 175 °C; under `COc1cc(COc2cc(/C=C/c3ccccn3)n(-c3ccccc3)n2)ccc1OCc1nc(-c2ccco2)oc1C`, 122 to 123 °C.
As for `O=[N+]([O-])c1c(C=NO)cccc1OCc1ccccc1`, the melting point lay in the range of 141 to 142 °C.
Under `Nc1nc(-c2cc(Cl)ccc2Cl)nc(N2CCN(CCO)CC2)n1` stands 185 to 187 °C; under `CCON=Cc1cc(-n2c(=O)n(C)c(=S)n(C)c2=O)ccc1Cl`, 139 to 141 °C.
Then `CCN(CC)CCNc1ncc2cc(-c3c(Cl)cccc3Cl)c(NC(=O)NC(C)(C)C)nc2n1`, with 94.5 to 96.5 °C; and `CCCc1c(OCCOCCOCCOc2c(C(C)=O)ccc(OCC(=O)O)c2CCC)ccc(C(C)=O)c1O`, with 74 to 77 °C; and `C[C@@H](CCCCC(=O)O)NC(=O)OCc1ccccc1`, with 82 to 83 °C.
Then `COC(=O)C1=CC(C(=O)OC)NC(=O)N1` (configuration not stated), with 177 to 179 °C; and `COC(=O)C1COc2ccc(S)cc2C1` (configuration not stated), with 83 to 84 °C.

Source of the values: a melting point compilation (Tetko et al.; mined from patent text by program, amines drawn as free bases though some values may be those of a salt).
